US9499495B2, “Quinazolines and azaquinazolines as dual inhibitors of RAS/RAF/MEK/ERK and PI3K/AKT/PTEN/mTOR pathways” (Asana Biosciences, LLC, priority 2013, dated 2016)

How the values were obtained:
Type in all cases: cell-based
A375 cells = test: XTT assay for cell viability, A375 cells; details: Homo sapiens, A-375, 72 h
Procedure, shortened: (§1)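 RKO and A375 cells seeded at 1000-2000/well overnight, then exposed to compound for 72 h at 37° C., 5% CO2. XTT (1 mg/ml)/PMS (25 μM) added for 2-3 h; absorbance at 450 nm. Growth relative to DMSO control (100%); GI50 from sigmoidal dose-response fit.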

RKO cells = test: XTT assay for cell viability, RKO cells; details: Homo sapiens, 72 h
Procedure, shortened: as §1

pERK in A375 cells = test: In Cell Western (ICW) assay, pERK in A375 cells; details: Homo sapiens, A-375, 3 h treatment
Procedure, shortened: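 RKO or A375 cells were exposed to compounds for 3 h at 37 °C, then fixed and stained in-cell with antibodies to pERK1/2 (T202/Y204), pS6RP or pAKT T308, followed by a Eu-labelled secondary. Time-resolved fluorescence (340/615 nm) was normalized to Hoechst, and IC50 values were fitted sigmoidally against DMSO as 0% inhibition.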

pS6RP in RKO cells = test: In Cell Western (ICW) assay, pS6RP in RKO cells; details: Homo sapiens, 3 h treatment
Description: (§2) Cell lines A375, A2058 and RKO obtained from the ATCC as provided above, were grown, and after attaining ˜80% confluency were trypsinized, centrifuged and resuspended in fresh media. The cells were seeded at the specified density (20,000 to 50,000) in a 96-well format black-well clear bottom plate (Corning) and incubated overnight at 37° C. in a 5% CO2 incubator. The next day, compound dilutions of test compounds were prepared in 100% DMSO followed by dilutions in respective media. Treatment of test compounds was performed for 3 h at 37° C. in 5% CO2 incubator. Following 3 h drug treatment, the conditional media was discarded and the cells were washed once with cPBS (PBS containing 0.1% magnesium chloride hexahydrate and 0.1% anhydrous calcium chloride) and fixed with 4% paraformaldehyde in cPBS for 1 h at rt. After fixing, the cells were given three washes using cPBST (cPBS containing 0.1% Triton™ X-100 reagent) and then blocked using blocking solution (5% skimmed milk powder or 5% BSA prepared in cPBST) for 2 h at rt with shaking at 300 rpm. The cells were again washed thrice with cPBST and incubated with primary antibody phospho-p44/42 MAPK(Erk1/2)(Thr202/204) antibody (Cell Signaling, Catalog # 9101L), phospho S6 ribosomal protein (Cell Signaling, Catalog #4858L), phospho AKT (Thr 308) (Cell Signaling, Catalog #9275) or phospho AKT (Ser 473) (Cell Signaling, Catalog #4060L) in specified dilutions (1:500-1:2500), prepared in respective blocking solutions, in a racker overnight at 4° C. The next day, the cells were washed with 1× Delfia® wash buffer (4×1 wash) and incubated with secondary antibody (Delfia®-Eu-N1 labeled anti-rabbit antibody; PerkinElmer, Catalog #AD0105; dilutions: 1:2000 to 1:6000 in Delfia® assay buffer (PerkinElmer, Catalog #1244-111)) for 2 h at rt in the dark at 300 rpm. The cells were then given four washes with 1× Delfia® wash buffer and incubated with Wallac Delfia® Enhancement solution (100 μL; PerkinElmer, Catalog #1244-105) for 20 min at rt in the dark at 300 rpm. The fluorescence emission was then read at 615 nm with an excitation wavelength of 340 nm using a Victor V5 Fluorometer (Perkin Elmer, US). The cells were then washed once with 1×cPBS and incubated with 100 μL of 0.5 mg/mL of Hoechst 33258 dye prepared in cPBS and read at 460 nm with 355 nm excitation, thereby evaluating the correction factor.
(§3) The % inhibition for the test compounds of formula (I) (new chemical entities (NCEs)) was calculated keeping DMSO control as 0% and the IC50 values were determined using sigmoidal dose response curve fit in GraphPad Prism® v5 software.

pERK in RKO cells = test: In Cell Western (ICW) assay, pERK in RKO cells; details: Homo sapiens, 3 h treatment
Description: as §2, §3

SMILES: CCCS(=O)(=O)Nc1cccc(-c2ccc3nc(-c4cnc(N)nc4)nc(N4CCOCC4)c3n2)c1F [Example 7, N-(3-(2-(2-aminopyrimidin-5-yl)-4-morpholinopyrido[3,2-d]pyrimidin-6-yl)-2-fluorophenyl)propane-1-sulfonamide]
- IC50 (A375 cells): 100 to 1000 nM
- IC50 (RKO cells): 100 to 1000 nM
- IC50 (pERK in A375 cells): 100 to 1000 nM

SMILES: COc1cc2nc(-c3cnc(N)nc3)nc(N3CCOCC3)c2cc1-c1cccc(NS(=O)(=O)CCCF)c1F [Example 11, N-(3-(2-(2-aminopyrimidin-5-yl)-7-methoxy-4-morpholinoquinazolin-6-yl)-2-fluorophenyl)-3-fluoropropane-1-sulfonamide]
- IC50 (pS6RP in RKO cells): 100 to 1000 nM
- IC50 (A375 cells): 100 to 1000 nM
- IC50 (RKO cells): 100 to 1000 nM
- IC50 (pERK in A375 cells): 1 to 100 nM

SMILES: CNC(=O)Nc1ccc(-c2nc(N3CCOCC3)c3cc(-c4cccc(NS(=O)(=O)CCCF)c4F)cc(OC)c3n2)cn1 [Example 39, 3-fluoro-N-(2-fluoro-3-(8-methoxy-2-(6-(3-methylureido)pyridin-3-yl)-4-morpholinoquinazolin-6-yl)phenyl)propane-1-sulfonamide]
- IC50 (A375 cells): 1 to 100 nM
- IC50 (pERK in A375 cells): 1 to 100 nM

SMILES: COc1cc(-c2cccc(NS(=O)(=O)CCCF)c2F)cc2c(N3CCOC[C@H]3C)nc(-c3cnc(N)nc3)nc12 [Example 43, (R)-N-(3-(2-(2-aminopyrimidin-5-yl)-8-methoxy-4-(3-methylmorpholino)quinazolin-6-yl)-2-fluorophenyl)-3-fluoropropane-1-sulfonamide]
- IC50 (pS6RP in RKO cells): 100 to 1000 nM
- IC50 (A375 cells): 1 to 100 nM
- IC50 (RKO cells): 100 to 1000 nM
- IC50 (pERK in A375 cells): 1 to 100 nM
- IC50 (pERK in RKO cells): 1 to 100 nM

SMILES: Nc1ncc(-c2nc(N3CCOCC3)c3cc(-c4cccc(NS(=O)(=O)CCCF)c4F)cc(N4CCOCC4)c3n2)cn1 [Example 69, N-(3-(2-(2-aminopyrimidin-5-yl)-4,8-dimorpholinoquinazolin-6-yl)-2-fluorophenyl)-3-fluoropropane-1-sulfonamide]
- IC50 (A375 cells): 1 to 100 nM
- IC50 (pERK in A375 cells): 1 to 100 nM

SMILES: CCCS(=O)(=O)Nc1cccc(-c2ccc3nc(-c4ccc(N)nc4)nc(N4CCOCC4)c3n2)c1F [Example 86, N-(3-(2-(6-aminopyridin-3-yl)-4-morpholinopyrido[3,2-d]pyrimidin-6-yl)-2-fluorophenyl)propane-1-sulfonamide]
- IC50 (A375 cells): 100 to 1000 nM
- IC50 (RKO cells): 100 to 1000 nM
- IC50 (pERK in A375 cells): 100 to 1000 nM

SMILES: Cc1cc(-c2nc(N3CCOCC3)c3nc(-c4cccc(NS(=O)(=O)CCCF)c4F)ccc3n2)cnc1N [Example 90, N-(3-(2-(6-amino-5-methylpyridin-3-yl)-4-morpholinopyrido[3,2-d]pyrimidin-6-yl)-2-fluorophenyl)-3-fluoropropane-1-sulfonamide]
- IC50 (A375 cells): 100 to 1000 nM
- IC50 (pERK in A375 cells): 100 to 1000 nM

SMILES: Nc1ccc(-c2nc(N3CCOCC3)c3nc(-c4cccc(NS(=O)(=O)c5c(F)cccc5F)c4F)ccc3n2)cn1 [Example 95, N-(3-(2-(6-aminopyridin-3-yl)-4-morpholinopyrido[3,2-d]pyrimidin-6-yl)-2-fluorophenyl)-2,6-difluorobenzenesulfonamide]
- IC50 (A375 cells): 100 to 1000 nM
- IC50 (RKO cells): 1000 to 10000 nM
- IC50 (pERK in A375 cells): 100 to 1000 nM

SMILES: C[C@@H]1COCCN1c1nc(-c2ccc(N)nc2)nc2ccc(-c3cccc(NS(=O)(=O)CCCF)c3F)nc12 [Example 96, (R)-N-(3-(2-(6-aminopyridin-3-yl)-4-(3-methylmorpholino)pyrido[3,2-d]pyrimidin-6-yl)-2-fluorophenyl)-3-fluoropropane-1-sulfonamide]
- IC50 (pS6RP in RKO cells): 100 to 1000 nM
- IC50 (A375 cells): 1 to 100 nM
- IC50 (RKO cells): 100 to 1000 nM
- IC50 (pERK in A375 cells): 1 to 100 nM
- IC50 (pERK in RKO cells): 1 to 100 nM

SMILES: C[C@@H]1COCCN1c1nc(-c2cnc(N)nc2)nc2ccc(-c3cccc(NS(=O)(=O)CCCF)c3F)nc12 [Example 97, (R)-N-(3-(2-(2-aminopyrimidin-5-yl)-4-(3-methylmorpholino)pyrido[3,2-d]pyrimidin-6-yl)-2-fluorophenyl)-3-fluoropropane-1-sulfonamide]
- IC50 (pS6RP in RKO cells): 100 to 1000 nM
- IC50 (A375 cells): 100 to 1000 nM
- IC50 (RKO cells): 100 to 1000 nM
- IC50 (pERK in A375 cells): 1 to 100 nM

SMILES: O=S(=O)(CCCF)Nc1cccc(-c2ccc3nc(-c4ccc(NCCO)nc4)nc(N4CCOCC4)c3n2)c1F [Example 99, 3-fluoro-N-(2-fluoro-3-(2-(6-((2-hydroxyethyl)amino)pyridin-3-yl)-4-morpholinopyrido[3,2-d]pyrimidin-6-yl)phenyl)propane-1-sulfonamide]
- IC50 (pS6RP in RKO cells): 100 to 1000 nM
- IC50 (A375 cells): 100 to 1000 nM
- IC50 (RKO cells): 100 to 1000 nM
- IC50 (pERK in A375 cells): 1 to 100 nM
- IC50 (pERK in RKO cells): 1 to 100 nM

SMILES: Nc1cc(F)c(-c2nc(N3CCOCC3)c3nc(-c4cccc(NS(=O)(=O)CCCF)c4F)ccc3n2)cn1 [Example 102, N-(3-(2-(6-amino-4-fluoropyridin-3-yl)-4-morpholinopyrido[3,2-d]pyrimidin-6-yl)-2-fluorophenyl)-3-fluoropropane-1-sulfonamide]
- IC50 (pS6RP in RKO cells): 100 to 1000 nM
- IC50 (A375 cells): 100 to 1000 nM
- IC50 (RKO cells): 100 to 1000 nM
- IC50 (pERK in A375 cells): 100 to 1000 nM
- IC50 (pERK in RKO cells): 100 to 1000 nM

SMILES: Nc1cc(C(F)(F)F)c(-c2nc(N3CCOCC3)c3nc(-c4cccc(NS(=O)(=O)c5c(F)cccc5F)c4F)ccc3n2)cn1 [Example 106, N-(3-(2-(6-amino-4-(trifluoromethyl)pyridin-3-yl)-4-morpholinopyrido[3,2-d]pyrimidin-6-yl)-2-fluorophenyl)-2,6-difluorobenzenesulfonamide]
- IC50 (A375 cells): 100 to 1000 nM
- IC50 (pERK in A375 cells): 1000 to 10000 nM

SMILES: O=S(=O)(CCCF)Nc1cccc(-c2ccc3nc(-c4ccc(NCCCO)nc4)nc(N4CCOCC4)c3n2)c1F [Example 111, 3-fluoro-N-(2-fluoro-3-(2-(6-((3-hydroxypropyl)amino)pyridin-3-yl)-4-morpholinopyrido[3,2-d]pyrimidin-6-yl)phenyl)propane-1-sulfonamide]
- IC50 (A375 cells): 100 to 1000 nM
- IC50 (pERK in A375 cells): 100 to 1000 nM

SMILES: Cc1cc(-c2cccc(NS(=O)(=O)CCCF)c2F)cc2c(N3CCOCC3)nc(-c3cnc(N)nc3)nc12 [Example 116, N-(3-(2-(2-aminopyrimidin-5-yl)-8-methyl-4-morpholinoquinazolin-6-yl)-2-fluorophenyl)-3-fluoropropane-1-sulfonamide]
- IC50 (A375 cells): 1 to 100 nM
- IC50 (pERK in A375 cells): 1 to 100 nM

SMILES: C[C@H]1COCCN1c1nc(-c2cnc(N)cc2F)nc2ccc(-c3cccc(NS(=O)(=O)CCCF)c3F)nc12 [Example 129, (S)-N-(3-(2-(6-amino-4-fluoropyridin-3-yl)-4-(3-methylmorpholino)pyrido[3,2-d]pyrimidin-6-yl)-2-fIuorophenyl)-3-fluoropropane-1-sulfonamide]
- IC50 (A375 cells): 100 to 1000 nM
- IC50 (pERK in A375 cells): 100 to 1000 nM

SMILES: COc1cc(-c2cccc(NS(=O)(=O)CCCF)c2F)cc2c(N3CCOC[C@H]3C)nc(-c3cnc(N)c(F)c3)nc12 [Example 134, (R)-N-(3-(2-(6-amino-5-fluoropyridin-3-yl)-8-methoxy-4-(3-methylmorpholino)quinazolin-6-yl)-2-fluorophenyl)-3-fluoropropane-1-sulfonamide]
- IC50 (pS6RP in RKO cells): 1 to 100 nM
- IC50 (A375 cells): 1 to 100 nM
- IC50 (RKO cells): 100 to 1000 nM
- IC50 (pERK in A375 cells): 1 to 100 nM
- IC50 (pERK in RKO cells): 1 to 100 nM

SMILES: COc1cc(-c2cccc(NS(=O)(=O)CCCF)c2F)cc2c(N3CCOC[C@H]3C)nc(-c3cnc(N)cc3F)nc12 [Example 135, (R)-N-(3-(2-(6-amino-4-fluoropyridin-3-yl)-8-methoxy-4-(3-methylmorpholino)quinazolin-6-yl)-2-fluorophenyl)-3-fluoropropane-1-sulfonamide]
- IC50 (pS6RP in RKO cells): 100 to 1000 nM
- IC50 (A375 cells): 1 to 100 nM
- IC50 (RKO cells): 100 to 1000 nM
- IC50 (pERK in A375 cells): 1 to 100 nM
- IC50 (pERK in RKO cells): 1 to 100 nM
